“And” between values parts separate entries of the source, which are not always exact repeats. Equal entries are not always repeated.
Experiments:
[1] = biological target: Growth hormone secretagogue receptor type 1 (Homo sapiens, UniProt Q92847)
[2] = biological target: 5-hydroxytryptamine receptor 2B (Homo sapiens, UniProt P41595); format: functional, cell-based
[3] = biological target: T1, Alpha-1A adrenergic receptor (Homo sapiens, UniProt P35348); format: functional, cell-based
T1 sequence (P35348 whole entry): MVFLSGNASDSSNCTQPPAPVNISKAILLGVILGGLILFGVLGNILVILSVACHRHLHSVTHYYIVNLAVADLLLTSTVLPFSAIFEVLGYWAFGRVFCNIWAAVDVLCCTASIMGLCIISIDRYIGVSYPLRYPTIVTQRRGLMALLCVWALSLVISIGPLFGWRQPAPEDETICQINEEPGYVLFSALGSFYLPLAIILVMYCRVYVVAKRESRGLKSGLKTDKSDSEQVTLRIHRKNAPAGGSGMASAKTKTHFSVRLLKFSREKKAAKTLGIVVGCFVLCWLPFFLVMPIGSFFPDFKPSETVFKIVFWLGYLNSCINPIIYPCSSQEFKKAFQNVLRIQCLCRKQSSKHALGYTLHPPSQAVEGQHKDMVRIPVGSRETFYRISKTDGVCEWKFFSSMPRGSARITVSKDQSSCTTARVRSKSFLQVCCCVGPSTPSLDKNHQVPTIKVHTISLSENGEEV

[4] = biological target: T1, Alpha-1A adrenergic receptor; format: functional, cell-based; remark: listed apart in the source
[5] = biological target: Sodium-dependent dopamine transporter (Homo sapiens, UniProt Q01959)
[6] = biological target: Cannabinoid receptor 1 (Homo sapiens, UniProt P21554); format: functional, cell-based
[7] = biological target: T1, Alpha-1A adrenergic receptor; format: functional, cell-based; remark: listed apart in the source
[8] = biological target: Voltage-dependent L-type calcium channel subunit alpha-1C (Rattus norvegicus, UniProt P22002); format: functional
[9] = biological target: Neuronal acetylcholine receptor subunit alpha-4 (Homo sapiens, UniProt P43681)
[10] = biological target: D(3) dopamine receptor (Homo sapiens, UniProt P35462)
[11] = biological target: T2, 5-hydroxytryptamine receptor 1A (Homo sapiens, UniProt P08908); format: functional, cell-based
T2 sequence (P08908 whole entry): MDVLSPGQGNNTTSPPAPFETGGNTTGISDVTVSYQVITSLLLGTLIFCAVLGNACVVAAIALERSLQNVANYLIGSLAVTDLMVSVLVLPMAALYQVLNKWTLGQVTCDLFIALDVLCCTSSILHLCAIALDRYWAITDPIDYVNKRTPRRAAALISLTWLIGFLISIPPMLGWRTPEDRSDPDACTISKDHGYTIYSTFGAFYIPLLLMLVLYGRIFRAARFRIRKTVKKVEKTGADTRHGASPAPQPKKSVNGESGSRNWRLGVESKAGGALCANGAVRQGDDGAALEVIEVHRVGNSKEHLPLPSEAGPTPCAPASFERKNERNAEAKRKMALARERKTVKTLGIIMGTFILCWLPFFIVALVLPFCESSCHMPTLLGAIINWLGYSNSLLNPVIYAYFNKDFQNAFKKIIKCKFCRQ

[12] = biological target: T3, Progesterone receptor (Homo sapiens, UniProt P06401); format: functional
T3 sequence (P06401 whole entry): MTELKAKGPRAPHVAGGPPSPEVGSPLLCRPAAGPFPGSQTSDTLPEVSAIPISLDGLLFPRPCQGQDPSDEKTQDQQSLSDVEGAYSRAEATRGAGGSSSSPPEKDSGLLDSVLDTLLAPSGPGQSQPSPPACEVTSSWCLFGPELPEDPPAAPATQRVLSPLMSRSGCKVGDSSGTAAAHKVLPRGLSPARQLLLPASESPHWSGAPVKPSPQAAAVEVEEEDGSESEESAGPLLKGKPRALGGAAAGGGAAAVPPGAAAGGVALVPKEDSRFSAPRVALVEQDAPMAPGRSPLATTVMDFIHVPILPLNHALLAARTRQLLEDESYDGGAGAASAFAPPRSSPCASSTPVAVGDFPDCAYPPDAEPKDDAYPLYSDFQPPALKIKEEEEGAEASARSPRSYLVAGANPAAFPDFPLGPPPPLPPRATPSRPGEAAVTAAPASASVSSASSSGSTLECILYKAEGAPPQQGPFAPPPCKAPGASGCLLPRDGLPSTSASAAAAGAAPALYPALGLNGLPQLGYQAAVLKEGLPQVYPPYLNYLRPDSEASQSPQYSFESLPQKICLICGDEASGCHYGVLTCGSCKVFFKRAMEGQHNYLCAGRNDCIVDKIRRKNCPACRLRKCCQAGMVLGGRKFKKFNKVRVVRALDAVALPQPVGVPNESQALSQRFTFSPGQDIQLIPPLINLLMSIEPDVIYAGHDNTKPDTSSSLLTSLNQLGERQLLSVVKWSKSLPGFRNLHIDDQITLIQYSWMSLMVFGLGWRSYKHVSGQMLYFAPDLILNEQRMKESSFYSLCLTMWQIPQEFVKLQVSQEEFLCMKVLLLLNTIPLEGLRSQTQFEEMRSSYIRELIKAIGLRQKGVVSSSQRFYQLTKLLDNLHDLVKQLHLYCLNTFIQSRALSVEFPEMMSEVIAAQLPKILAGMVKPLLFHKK

[13] = biological target: T4, Prostaglandin G/H synthase 1 (Rattus norvegicus, UniProt Q63921); format: functional
T4 sequence (Q63921 whole entry): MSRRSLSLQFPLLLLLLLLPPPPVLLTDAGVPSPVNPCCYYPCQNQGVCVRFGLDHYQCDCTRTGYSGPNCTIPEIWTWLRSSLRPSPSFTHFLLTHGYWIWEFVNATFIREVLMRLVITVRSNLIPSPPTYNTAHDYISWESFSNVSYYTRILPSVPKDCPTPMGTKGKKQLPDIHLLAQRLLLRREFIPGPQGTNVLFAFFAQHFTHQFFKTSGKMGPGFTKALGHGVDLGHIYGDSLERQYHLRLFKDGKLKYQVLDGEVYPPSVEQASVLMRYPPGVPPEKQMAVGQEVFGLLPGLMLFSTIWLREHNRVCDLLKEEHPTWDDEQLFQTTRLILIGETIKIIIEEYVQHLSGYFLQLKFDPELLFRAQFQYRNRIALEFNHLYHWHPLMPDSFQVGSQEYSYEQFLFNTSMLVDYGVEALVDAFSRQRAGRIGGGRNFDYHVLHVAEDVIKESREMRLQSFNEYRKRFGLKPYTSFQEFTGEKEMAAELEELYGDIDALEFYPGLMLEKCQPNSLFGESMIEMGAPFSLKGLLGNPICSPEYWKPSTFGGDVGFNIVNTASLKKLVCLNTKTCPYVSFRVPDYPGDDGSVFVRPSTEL
Further: assay procedure not described here.

D(3) dopamine receptor, sequence (P35462 whole entry): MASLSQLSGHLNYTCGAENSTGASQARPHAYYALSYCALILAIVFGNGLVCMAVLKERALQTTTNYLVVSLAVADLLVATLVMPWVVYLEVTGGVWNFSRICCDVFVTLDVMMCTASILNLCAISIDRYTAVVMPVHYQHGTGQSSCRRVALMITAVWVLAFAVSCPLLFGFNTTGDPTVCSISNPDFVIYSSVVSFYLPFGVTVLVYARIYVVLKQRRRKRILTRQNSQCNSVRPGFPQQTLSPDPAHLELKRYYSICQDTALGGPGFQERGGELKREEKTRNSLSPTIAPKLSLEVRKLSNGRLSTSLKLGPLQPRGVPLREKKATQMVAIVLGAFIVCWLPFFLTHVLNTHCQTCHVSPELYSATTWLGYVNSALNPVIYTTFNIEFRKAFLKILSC
Cannabinoid receptor 1, sequence (P21554 whole entry): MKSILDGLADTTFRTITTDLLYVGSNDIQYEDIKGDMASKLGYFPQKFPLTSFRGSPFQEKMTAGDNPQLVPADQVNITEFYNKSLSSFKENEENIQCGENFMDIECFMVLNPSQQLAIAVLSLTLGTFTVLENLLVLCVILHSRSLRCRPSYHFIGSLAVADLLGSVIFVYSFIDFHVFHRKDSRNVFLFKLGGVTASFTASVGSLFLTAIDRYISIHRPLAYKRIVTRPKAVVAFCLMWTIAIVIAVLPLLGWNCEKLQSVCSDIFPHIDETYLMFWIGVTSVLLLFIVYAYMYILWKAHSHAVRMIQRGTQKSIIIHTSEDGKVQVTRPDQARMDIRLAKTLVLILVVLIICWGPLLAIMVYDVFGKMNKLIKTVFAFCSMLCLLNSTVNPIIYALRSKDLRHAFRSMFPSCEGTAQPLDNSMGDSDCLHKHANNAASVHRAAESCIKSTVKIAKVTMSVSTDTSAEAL
5-hydroxytryptamine receptor 2B, sequence (P41595 whole entry): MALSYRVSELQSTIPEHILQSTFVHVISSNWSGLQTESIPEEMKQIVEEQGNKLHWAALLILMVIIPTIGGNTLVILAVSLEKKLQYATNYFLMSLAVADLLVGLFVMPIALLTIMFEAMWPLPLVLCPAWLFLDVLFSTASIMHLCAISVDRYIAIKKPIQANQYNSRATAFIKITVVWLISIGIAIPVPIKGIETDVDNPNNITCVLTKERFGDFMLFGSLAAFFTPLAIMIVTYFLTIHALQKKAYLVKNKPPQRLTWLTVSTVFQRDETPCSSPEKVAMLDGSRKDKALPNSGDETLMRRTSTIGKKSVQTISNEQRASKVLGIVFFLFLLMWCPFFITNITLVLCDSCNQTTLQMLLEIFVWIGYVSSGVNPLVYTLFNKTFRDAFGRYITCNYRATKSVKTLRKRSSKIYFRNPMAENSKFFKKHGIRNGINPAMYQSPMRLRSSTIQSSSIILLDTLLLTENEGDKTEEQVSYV
Growth hormone secretagogue receptor type 1, sequence (Q92847 whole entry): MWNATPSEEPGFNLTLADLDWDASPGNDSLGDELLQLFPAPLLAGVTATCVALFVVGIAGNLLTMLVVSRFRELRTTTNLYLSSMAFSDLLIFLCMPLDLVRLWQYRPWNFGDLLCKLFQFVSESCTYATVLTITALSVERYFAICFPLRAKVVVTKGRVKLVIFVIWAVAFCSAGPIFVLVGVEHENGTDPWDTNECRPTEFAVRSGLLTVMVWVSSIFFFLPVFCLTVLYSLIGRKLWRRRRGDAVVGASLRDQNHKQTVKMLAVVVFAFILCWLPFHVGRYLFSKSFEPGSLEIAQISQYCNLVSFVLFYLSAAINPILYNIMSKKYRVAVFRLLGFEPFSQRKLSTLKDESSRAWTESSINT
Neuronal acetylcholine receptor subunit alpha-4, sequence (P43681 whole entry): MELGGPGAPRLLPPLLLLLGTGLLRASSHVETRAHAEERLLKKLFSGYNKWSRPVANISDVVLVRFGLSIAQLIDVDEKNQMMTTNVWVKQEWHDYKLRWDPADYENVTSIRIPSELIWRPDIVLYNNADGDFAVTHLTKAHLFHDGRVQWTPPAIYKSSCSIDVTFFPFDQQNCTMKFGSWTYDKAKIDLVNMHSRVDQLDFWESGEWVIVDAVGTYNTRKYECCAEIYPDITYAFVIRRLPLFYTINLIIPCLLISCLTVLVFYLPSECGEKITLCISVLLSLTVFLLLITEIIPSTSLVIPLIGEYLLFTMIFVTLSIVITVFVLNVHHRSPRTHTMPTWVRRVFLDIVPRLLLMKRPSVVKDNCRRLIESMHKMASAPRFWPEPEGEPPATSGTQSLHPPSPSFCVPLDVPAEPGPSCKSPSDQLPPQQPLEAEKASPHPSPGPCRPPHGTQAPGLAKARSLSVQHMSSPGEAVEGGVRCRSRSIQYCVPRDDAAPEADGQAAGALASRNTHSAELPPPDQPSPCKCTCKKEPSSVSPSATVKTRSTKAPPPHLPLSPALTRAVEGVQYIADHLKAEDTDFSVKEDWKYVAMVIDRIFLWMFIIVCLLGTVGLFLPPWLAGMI
Sodium-dependent dopamine transporter, sequence (Q01959 whole entry): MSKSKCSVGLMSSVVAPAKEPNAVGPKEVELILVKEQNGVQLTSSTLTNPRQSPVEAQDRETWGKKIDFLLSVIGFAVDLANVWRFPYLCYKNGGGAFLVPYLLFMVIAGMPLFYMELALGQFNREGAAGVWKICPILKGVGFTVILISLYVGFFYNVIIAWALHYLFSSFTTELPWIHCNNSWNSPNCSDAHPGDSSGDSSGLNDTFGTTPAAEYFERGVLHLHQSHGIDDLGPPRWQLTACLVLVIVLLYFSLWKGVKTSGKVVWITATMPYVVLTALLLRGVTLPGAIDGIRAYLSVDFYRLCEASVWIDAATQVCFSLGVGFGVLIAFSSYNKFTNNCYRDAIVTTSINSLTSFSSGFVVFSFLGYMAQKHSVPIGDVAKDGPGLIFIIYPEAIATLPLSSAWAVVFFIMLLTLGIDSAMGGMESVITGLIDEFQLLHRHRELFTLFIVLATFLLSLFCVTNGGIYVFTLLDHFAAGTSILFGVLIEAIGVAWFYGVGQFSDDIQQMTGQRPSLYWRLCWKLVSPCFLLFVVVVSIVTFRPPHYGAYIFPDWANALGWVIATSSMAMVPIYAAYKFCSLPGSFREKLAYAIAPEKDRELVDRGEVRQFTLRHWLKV

Row | SMILES | AC50 [1] | AC50 [2] | AC50 [3] | AC50 [4] | AC50 [5] | AC50 [6] | AC50 [7] | AC50 [8] | AC50 [9] | AC50 [10] | AC50 [11] | AC50 [12] | AC50 [13]
1 | CC(C)Cc1ccc(C(C)C(=O)O)cc1 (stereo not drawn) [IBUPROFEN] | > 30 µM | > 10 µM | > 30 µM | > 30 µM | > 30 µM | > 30 µM | > 30 µM | > 10 µM | > 10 µM | > 30 µM | > 10 µM |  | 
2 | C=CC[C@@H]1/C=C(\C)C[C@H](C)C[C@H](OC)[C@H]2O[C@@](O)(C(=O)C(=O)N3CCCC[C@H]3C(=O)O[C@H](/C(C)=C/[C@@H]3CC[C@@H](O)[C@H](OC)C3)[C@H](C)[C@@H](O)CC1=O)[C@H](C)C[C@@H]2OC [TACROLIMUS ANHYDROUS] | > 30 µM | > 30 µM |  | > 30 µM | 19.6 µM and > 10 µM | > 30 µM | > 30 µM | > 10 µM | > 30 µM | > 30 µM | > 30 µM | > 30 µM | > 30 µM
3 | Cc1onc(-c2ccccc2)c1-c1ccc(S(N)(=O)=O)cc1 [VALDECOXIB] | > 30 µM | > 10 µM | > 30 µM | > 30 µM | > 30 µM | > 30 µM | > 30 µM | > 10 µM | > 30 µM | > 30 µM | > 10 µM | > 30 µM | > 30 µM
4 | CN(C)CC[C@@H](c1ccc(Cl)cc1)c1ccccn1 [DEXCHLORPHENIRAMINE] | > 30 µM | > 30 µM |  | > 30 µM |  | > 30 µM | > 30 µM | > 30 µM | > 30 µM | > 30 µM | 22 µM | > 30 µM | > 30 µM
5 | O=C1C(CC[S+]([O-])c2ccccc2)C(=O)N(c2ccccc2)N1c1ccccc1 (stereo not drawn) [SULFINPYRAZONE] | > 10 µM | > 30 µM |  | > 30 µM | > 10 µM | > 30 µM | > 30 µM | > 10 µM | > 10 µM | > 30 µM | > 10 µM | > 10 µM | > 10 µM
6 | COc1ccccc1Oc1c(NS(=O)(=O)c2ccc(C(C)(C)C)cc2)nc(-c2ncccn2)nc1OCCO [BOSENTAN] | > 30 µM | > 10 µM |  | > 30 µM | > 30 µM | > 30 µM | > 30 µM | > 10 µM | > 30 µM | > 30 µM | > 10 µM | > 30 µM | > 30 µM
7 | COc1cc2nccc(Oc3ccc(NC(=O)C4(C(=O)Nc5ccc(F)cc5)CC4)cc3)c2cc1OC [CABOZANTINIB] | > 30 µM | > 30 µM | > 30 µM | > 30 µM | > 30 µM | > 30 µM | > 30 µM |  | > 30 µM | > 30 µM | > 30 µM | > 30 µM | > 30 µM
8 | CC(S)C(=O)NCC(=O)O (stereo not drawn) [TIOPRONIN] | > 30 µM | > 30 µM |  | > 30 µM | > 30 µM | > 30 µM | > 30 µM |  | > 30 µM | > 30 µM | > 30 µM | > 30 µM | 3.3 µM
9 | C[C@]12C=CC(=O)N[C@@H]1CC[C@@H]1[C@@H]2CC[C@]2(C)[C@@H](C(=O)Nc3cc(C(F)(F)F)ccc3C(F)(F)F)CC[C@@H]12 [DUTASTERIDE] | > 10 µM | > 10 µM |  | > 30 µM | > 10 µM | > 30 µM | > 30 µM | > 10 µM | > 10 µM | > 30 µM | > 10 µM | > 10 µM | > 10 µM
10 | CCN1CCN(Cc2ccc(Nc3ncc(F)c(-c4cc(F)c5nc(C)n(C(C)C)c5c4)n3)nc2)CC1 [ABEMACICLIB] | > 30 µM | > 30 µM |  | > 30 µM | > 30 µM | > 30 µM | > 30 µM |  | > 30 µM | > 30 µM | > 30 µM | > 30 µM | > 30 µM
11 | N[C@@H](CC(=O)N1CCn2c(nnc2C(F)(F)F)C1)Cc1cc(F)c(F)cc1F [SITAGLIPTIN] | > 30 µM | > 30 µM |  | > 30 µM | > 30 µM | > 30 µM | > 30 µM | > 10 µM | > 30 µM | > 30 µM | > 30 µM | > 30 µM | > 30 µM
12 | CC(C)N(CCC(C(N)=O)(c1ccccc1)c1ccccn1)C(C)C (stereo not drawn) [DISOPYRAMIDE] | > 30 µM | > 10 µM |  | > 30 µM | > 30 µM | > 30 µM | > 30 µM | > 10 µM | > 30 µM | > 30 µM | > 10 µM | > 30 µM | 13.6 µM
13 | CO[C@H]1/C=C/O[C@@]2(C)Oc3c(C)c(O)c4c(O)c(c(/C=N/N5CCN(C)CC5)c(O)c4c3C2=O)NC(=O)/C(C)=C\C=C\[C@H](C)[C@H](O)[C@@H](C)[C@@H](O)[C@@H](C)[C@H](OC(C)=O)[C@@H]1C [RIFAMPIN] | > 30 µM | > 30 µM |  | > 30 µM | 20 µM | > 30 µM | > 30 µM | > 30 µM | 22 µM | 11 µM | > 10 µM | > 30 µM | > 30 µM

Source: ChEMBL document CHEMBL5291721, “A preclinical secondary pharmacology resource illuminates target-adverse drug reaction associations of marketed drugs” (Nat Commun, 2023)
